Measured values reported in patent US11377442B2, “Small molecule agonists and antagonists of NR2F6 activity” (ZANDER THERAPEUTICS, INC., priority 2016, dated 2022).
Read-outs that look alike come from different tables or passages of the source.

Legend:
Format in all cases: cell-based
[1] = test system: HEK293 pGL4; experiment: Firefly_pGL signal, cmpd/DMSO (pGL4 control cells); details: Homo sapiens
[2] = molecular target: T1, NR2F6 LBD (Homo sapiens, UniProt P10588); experiment: NR2F6 LBD transient transfection; details: LBD
T1 construct: expressed in transfected cells
T1 sequence (P10588 165-393 limits assumed): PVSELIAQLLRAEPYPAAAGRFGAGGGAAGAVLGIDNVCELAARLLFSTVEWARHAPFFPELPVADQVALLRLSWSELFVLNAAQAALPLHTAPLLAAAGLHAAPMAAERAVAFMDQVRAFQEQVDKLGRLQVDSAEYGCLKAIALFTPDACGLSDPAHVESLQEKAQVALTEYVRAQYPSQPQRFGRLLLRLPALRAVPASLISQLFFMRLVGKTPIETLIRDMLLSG
In short: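 LBD-transfected cells treated at 40, 10, 2 and 0.5 μM (4 replicates); cytotoxicity measured in parallel, normalized to DMSO (0%) and zero signal (100%). Higher concentrations excluded where signal loss reflected toxicity.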

[3] = molecular target: T2, NR2F6 (Homo sapiens, UniProt P10588); experiment: NR2F6 agonist screening, Firefly signal cmpd/DMSO
T2 construct: expressed in transfected cells; also transient transfection
T2 sequence (P10588 1-404): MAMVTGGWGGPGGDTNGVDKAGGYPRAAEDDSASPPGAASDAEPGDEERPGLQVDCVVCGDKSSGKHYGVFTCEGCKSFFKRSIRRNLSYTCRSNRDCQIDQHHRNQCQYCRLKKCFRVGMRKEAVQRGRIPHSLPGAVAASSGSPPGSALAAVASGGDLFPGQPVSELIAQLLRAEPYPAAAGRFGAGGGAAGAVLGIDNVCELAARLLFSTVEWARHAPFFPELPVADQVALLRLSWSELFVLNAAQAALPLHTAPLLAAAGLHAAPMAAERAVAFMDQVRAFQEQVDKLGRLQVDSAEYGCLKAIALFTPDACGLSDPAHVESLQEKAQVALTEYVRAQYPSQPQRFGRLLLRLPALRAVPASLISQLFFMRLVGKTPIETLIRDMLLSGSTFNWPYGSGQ

[4] = test system: Renilla; experiment: Renilla signal in NR2F6 agonist screening, cmpd/DMSO; details: Renilla, F4
[5] = HEK293, 0.5 uM, pGL4, read-out: Firefly pGL4, cmpd/DMSO (mean)
[6] = HEK293, 2 uM, pGL4, read-out: Firefly pGL4, cmpd/DMSO (mean)
[7] = HEK293, 10 uM, pGL4, read-out: Firefly pGL4, cmpd/DMSO (mean)
[8] = HEK293, 40 uM, pGL4, read-out: Firefly pGL4, cmpd/DMSO (mean)
[9] = HEK293, pGL4, 1% FBS, 0.5 uM, read-out: Firefly, pGL4, 1% FBS, cmpd/DMSO (mean)
[10] = HEK293, pGL4, 1% FBS, 2 uM, read-out: Firefly, pGL4, 1% FBS, cmpd/DMSO (mean)
[11] = HEK293, pGL4, 1% FBS, 10 uM, read-out: Firefly, pGL4, 1% FBS, cmpd/DMSO (mean)
[12] = HEK293, pGL4, 1% FBS, 40 uM, read-out: Firefly, pGL4, 1% FBS, cmpd/DMSO (mean)
[13] = HEK293, pGL4, 10% FBS, 0.5 uM, read-out: Firefly, pGL4, 10% FBS, cmpd/DMSO (mean)
[14] = HEK293, pGL4, 10% FBS, 2 uM, read-out: Firefly, pGL4, 10% FBS, cmpd/DMSO (mean)
[15] = HEK293, pGL4, 10% FBS, 10 uM, read-out: Firefly, pGL4, 10% FBS, cmpd/DMSO (mean)
[16] = HEK293, pGL4, 10% FBS, 40 uM, read-out: Firefly, pGL4, 10% FBS, cmpd/DMSO (mean)
[17] = read-out: Renilla, F4, cmpd/DMSO (mean)
[18] = 1% FBS, read-out: Renilla, F4, 1% FBS, cmpd/DMSO (mean)
[19] = 10% FBS, read-out: Renilla, F4, 10% FBS, cmpd/DMSO (mean)

## CCC(C)N[C@H]1CS(=O)(=O)C[C@@H]1S(=O)(=O)c1ccc(Cl)cc1 (stereo partly shown) [Compound D121]
[1]; [5]
  fold induction at 0.5 µM: 1.4
[1]; [6]
  fold induction at 2 µM: 1.6
[1]; [7]
  fold induction at 10 µM: 3.9
[1]; [8]
  fold induction at 40 µM: 0.7
[1]; [9]
  fold induction at 0.5 µM: 1.1
[1]; [10]
  fold induction at 2 µM: 1.1
[1]; [11]
  fold induction at 10 µM: 3.2
[1]; [12]
  fold induction at 40 µM: 0.8
[1]; [13]
  fold induction at 0.5 µM: 1.1
[1]; [14]
  fold induction at 2 µM: 1.4
[1]; [15]
  fold induction at 10 µM: 2.4
[1]; [16]
  fold induction at 40 µM: 1.2
[2]; 0.5 uM
  Firefly LBD, cmpd/DMSO (mean): 1.0
[2]; 2 uM
  Firefly LBD, cmpd/DMSO (mean): 1.5
[2]; 10 uM
  Firefly LBD, cmpd/DMSO (mean): 3.6
[2]; 40 uM
  Firefly LBD, cmpd/DMSO (mean): 0.7
[3]; 0.5 uM
  Firefly F4, cmpd/DMSO (mean): 0.9
[3]; 2 uM
  Firefly F4, cmpd/DMSO (mean): 1.9
[3]; 10 uM
  Firefly F4, cmpd/DMSO (mean): 4.9
[3]; 40 uM
  Firefly F4, cmpd/DMSO (mean): 1.9
[3]; 1% FBS, 10 uM
  F4, Firefly/Renilla for S/B(F4) > 3: 2.3
  Firefly, F4/pGL4 for S/B(F4) > 3: 1.2
  Firefly, F4, 1% FBS, cmpd/DMSO (mean): 3.9
[3]; 10% FBS, 10 uM
  F4, Firefly/Renilla for S/B(F4) > 3: 2.4
  Firefly, F4/pGL4 for S/B(F4) > 3: 1.4
  Firefly, F4, 10% FBS, cmpd/DMSO (mean): 3.3
[3]; 10% FBS, 40 uM
  F4, Firefly/Renilla for S/B(F4) > 3: 1.3
  Firefly, F4/pGL4 for S/B(F4) > 3: 2.9
  Firefly, F4, 10% FBS, cmpd/DMSO (mean): 3.4
[3]; 1% FBS, 0.5 uM
  Firefly, F4, 1% FBS, cmpd/DMSO (mean): 1.5
[3]; 1% FBS, 2 uM
  Firefly, F4, 1% FBS, cmpd/DMSO (mean): 1.2
[3]; 1% FBS, 40 uM
  Firefly, F4, 1% FBS, cmpd/DMSO (mean): 0.1
[3]; 10% FBS, 0.5 uM
  Firefly, F4, 10% FBS, cmpd/DMSO (mean): 1.2
[3]; 10% FBS, 2 uM
  Firefly, F4, 10% FBS, cmpd/DMSO (mean): 1.4
[4]; [17]
  fold induction at 0.5 µM: 1.2
  fold induction at 2 µM: 1.1
  fold induction at 10 µM: 1.5
  fold induction at 40 µM: 1.7
[4]; [18]
  fold induction at 0.5 µM: 1.1
  fold induction at 2 µM: 1.4
  fold induction at 10 µM: 1.7
  fold induction at 40 µM: 1.3
[4]; [19]
  fold induction at 0.5 µM: 1
  fold induction at 2 µM: 1.1
  fold induction at 10 µM: 1.4
  fold induction at 40 µM: 2.6

## O=S1(=O)C[C@H](N2CCCCC2)[C@@H](S(=O)(=O)c2ccc(Cl)cc2)C1 [Compound D123]
[1]; [5]
  fold induction at 0.5 µM: 1.2
[1]; [6]
  fold induction at 2 µM: 1.7
[1]; [7]
  fold induction at 10 µM: 3.4
[1]; [8]
  fold induction at 40 µM: 0.6
[1]; [9]
  fold induction at 0.5 µM: 1.1
[1]; [10]
  fold induction at 2 µM: 1.8
[1]; [11]
  fold induction at 10 µM: 2.7
[1]; [12]
  fold induction at 40 µM: 0.8
[1]; [13]
  fold induction at 0.5 µM: 1.2
[1]; [14]
  fold induction at 2 µM: 1.6
[1]; [15]
  fold induction at 10 µM: 3
[1]; [16]
  fold induction at 40 µM: 0.8
[2]; 0.5 uM
  Firefly LBD, cmpd/DMSO (mean): 1.0
[2]; 2 uM
  Firefly LBD, cmpd/DMSO (mean): 1.9
[2]; 10 uM
  Firefly LBD, cmpd/DMSO (mean): 4.9
[2]; 40 uM
  Firefly LBD, cmpd/DMSO (mean): 0.4
[3]; 0.5 uM
  Firefly F4, cmpd/DMSO (mean): 1.8
[3]; 2 uM
  Firefly F4, cmpd/DMSO (mean): 2.5
[3]; 10 uM
  Firefly F4, cmpd/DMSO (mean): 7.1
[3]; 40 uM
  Firefly F4, cmpd/DMSO (mean): 0.7
[3]; 1% FBS, 10 uM
  F4, Firefly/Renilla for S/B(F4) > 3: 2.7
  Firefly, F4/pGL4 for S/B(F4) > 3: 1.6
  Firefly, F4, 1% FBS, cmpd/DMSO (mean): 4.4
[3]; 10% FBS, 10 uM
  F4, Firefly/Renilla for S/B(F4) > 3: 4.0
  Firefly, F4/pGL4 for S/B(F4) > 3: 2.5
  Firefly, F4, 10% FBS, cmpd/DMSO (mean): 7.5
[3]; 1% FBS, 0.5 uM
  Firefly, F4, 1% FBS, cmpd/DMSO (mean): 1.3
[3]; 1% FBS, 2 uM
  Firefly, F4, 1% FBS, cmpd/DMSO (mean): 2.1
[3]; 1% FBS, 40 uM
  Firefly, F4, 1% FBS, cmpd/DMSO (mean): 0.2
[3]; 10% FBS, 0.5 uM
  Firefly, F4, 10% FBS, cmpd/DMSO (mean): 1.1
[3]; 10% FBS, 2 uM
  Firefly, F4, 10% FBS, cmpd/DMSO (mean): 2.0
[3]; 10% FBS, 40 uM
  Firefly, F4, 10% FBS, cmpd/DMSO (mean): 0.8
[3]; Table 31
  Activity, cmpd/DMSO: 6.1
[4]; [17]
  fold induction at 0.5 µM: 1.1
  fold induction at 2 µM: 1.4
  fold induction at 10 µM: 1.9
  fold induction at 40 µM: 0.3
[4]; [18]
  fold induction at 0.5 µM: 1.1
  fold induction at 2 µM: 1.4
  fold induction at 10 µM: 1.6
  fold induction at 40 µM: 0.1
[4]; [19]
  fold induction at 0.5 µM: 0.9
  fold induction at 2 µM: 1.1
  fold induction at 10 µM: 1.9
  fold induction at 40 µM: 0.2
